# Test results as given in patent US11510957B2, “Method for treating or alleviating autoimmune-related diseases” (priority 2016, dated 2022).
# Legend:
# [1] = system: IMQ-induced psoriasis-like dermatitis in BALB/c mice; test: Imiquimod (IMQ)-induced psoriasis-like dermatitis mouse model, skin irritation score; format: in vivo; conditions: 100 mg/kg; 6 days; FIG. 5D
# Method: The 8 weeks BALB/c male mice were purchased from BioLASCO Taiwan Co., Ltd. After acclimation and quarantine, the batch of mice were approximately 9-10 weeks of age at the time of performing the experiment of IMQ-induced psoriasis-like dermatitis. The experimental animals were bred in the environment: 12 hours light and 12 hours dark, room temperature of 23±2° C., and relative humidity of 40-70%. During feeding, animals were free to obtain adequate food and drinking water. In addition, during the quarantine and testing period, the animals were observed and recorded by the veterinarian and the experimental staff of ITRI to ensure health of these experimental animals.
# Then, the hair on the back of each mouse was shaved, and the shaving area was about 4*2 cm^2. Since day 0, 3.125 mg imiquimod (IMQ) was administered by smearing to the skin of shaved area of each mouse daily for consecutive 6 days. […]
# The above-mentioned degree of skin irritation is based on Psoriasis Area and Severity Index (PAST), in which erythema, thickening, and scaling of skin were assessed and analyzed for judging the scale. […]
# The mean value and standard error of mean (S.E.M.) of each group were calculated by accumulating the index observed in the same mouse, and t-test statistics was used to distinguish the differences between the groups.
# [2] = system: TNF-α secretion in LPS-induced acute inflammatory mice; test: TNF-α secretion in LPS-induced acute inflammatory BALB/c mouse model, plasma ELISA; format: in vivo; conditions: FIG. 5B
# Method: The 6-8 weeks BALB/c male mice were purchased from BioLASCO Taiwan Co., Ltd. In addition to make the feeding condition meeting with national experimental animal guidelines, the batch of mice were marked, sub-cage and weighing soon after acquisition. Then, these mice were placed to the quarantine room of general area for a week of quarantine work. During the quarantine period, observation of mobility and environmental adaptability was performed, and after assessment to be normal, these mice were transferred into the feeding area for experimental implementation. […]
# Then the mice were fasted for 2 to 4 hours but regular drinking water was still supplied. […] After administration, the clinical symptoms of the mice were observed and recorded. […] After administration, the clinical symptoms of the mice were observed and recorded.
# After 1.5 hours LPS stimulation, the mice were euthanized by excessive CO2 and the whole blood was collected by cardiac puncture blood sampling. Next, the plasma was collected after centrifugation at 6000 rpm and 4° C. for 10 minutes and then TNF-α secretion were analyzed.
# The TNF-α secretion in plasma was analyzed according to the following procedure shown in Duoset® ELISA kit. […] Finally, 50 μl of Stop Solution (1N HCl) was added to each well to stop the color reaction, and the absorbance of OD450 nm was measured.
# EAE in C57BL/6 mice = test: Experimental autoimmune encephalomyelitis (EAE) mouse model, clinical EAE score; format: in vivo; conditions: 30 mg/kg and 100 mg/kg; 14 days
# Method: The experimental animals, female C57BL/6 mice, aged about 8 weeks, were purchased from National Laboratory Animal Center (Tainan). After acclimation and quarantine, the mice were approximately 10-12 weeks of age at the time of performing the EAE experiments. The experimental animals were bred in the environment: 12 hours light and 12 hours dark, room temperature of 23±2° C., and relative humidity of 40-70%. During feeding, animals were free to obtain adequate food and drinking water, but after the onset of EAE, the soaked soft feed and agar gel jelly were especially given in the bottom of the feeding cage, so that the onset animals were easier to feed and drink. In addition, during the quarantine and testing period, the animals were observed and recorded by the veterinarian and the experimental staff of ITRI to ensure health of these experimental animals.
# The foregoing C57BL/6 mice were administered subcutaneously with 200 μl emulsion including 200 μg MOG35-55 peptide and 400 μg Mycobacterium tuberculosis H37Ra, followed by intraperitoneal injection of 500 ng pertussis toxin for induction of EAE. From the 7th day after induction, the EAE clinical symptoms were recorded daily according to the recognized Ataxia score (grading of nervous system disorder) and EAE score as the scoring criteria (description of Ataxia score and EAE score are as follows). […]
# [3] = system: IL-17 secretion in EL4 murine lymphoma cells; test: Anti-IL-17 secretion in EL4 (murine lymphoma) cells induced with PMA and Ionomycin, ELISA; format: cell-based; conditions: PMA 10 ng/ml + Ionomycin 5 ng/ml, 18 hours
# Method: EL4 cell line is murine lymphoma cell purchased from Bioresource Collection and Research Center (referred to as BCRC) and cultured in RPMI 1640 medium which contains 10% Fetal Bovine Serum (referred to as FBS), 1.5 g Sodium bicarbonate, 1 mM Sodium pyruvate, lx non-essential amino acids (referred to as NEAA), and 0.5 mM 2-Mecaptoethanol (referred to as 2-ME).
# EL4 lymphoma cells were seeded into 96-well plate by 1×10^5 cells per well and 10 μl of the extract of A. tsao-ko HE-06 was added to each well and incubated at 37° C. in 5% CO2 cell incubator for 1 hour. Then, Phorbol-12-myristate-13-acetate (referred to as PMA or TPA) and Ionomycin were added to be the stimulants that induce activation of lymphoma cells, in which the final concentration of PMA was 10 ng/ml and the final concentration of Ionomycin was 5 ng/ml, and additional 18 hours incubation was executed. In the above test, the group of adding both PMA (final concentration of 10 ng/ml) and Ionomycin (final concentration of 5 ng/ml) was considered as the control group.
# Thereafter, the cell-containing 96-well plate was centrifuged at 1200 rpm for 5 minutes and the supernatant was collected and transferred to the new 96-well plate. […] 150 μl DMSO was then added to dissolve the […] and the absorbance of 570 nm was measured to assess the cell viability. […]
smiles,measurement,setting,value
"O=CC1=CC[C@H](O)[C@@H]2CCC[C@H]12 [Tsaokoin (TK), tsaokoin]",clinical symptoms of IMQ-induced psoriasis-like dermatitis,[1],significantly alleviate the clinical symptoms of IMQ-induced psoriasis-like dermatitis
same,inhibition of TNF-α secretion (in words),[2],significantly inhibit the secretion of TNF-α
same,effect on progress of EAE (EAE score),EAE in C57BL/6 mice,"slow down the progress of EAE, and present a dose-dependent effect"
same,"IC50, concentration causing 50% IL-17 secretion inhibition, EL4",[3],12.1 µg/mL
